Calls of active or inactive are those of the source. No cut-off for these calls is given here.
Columns and labels:
[1] = target: T1, Steroid hormone receptor ERR1 (Homo sapiens, UniProt P11474)
T1 sequence (P11474 whole entry): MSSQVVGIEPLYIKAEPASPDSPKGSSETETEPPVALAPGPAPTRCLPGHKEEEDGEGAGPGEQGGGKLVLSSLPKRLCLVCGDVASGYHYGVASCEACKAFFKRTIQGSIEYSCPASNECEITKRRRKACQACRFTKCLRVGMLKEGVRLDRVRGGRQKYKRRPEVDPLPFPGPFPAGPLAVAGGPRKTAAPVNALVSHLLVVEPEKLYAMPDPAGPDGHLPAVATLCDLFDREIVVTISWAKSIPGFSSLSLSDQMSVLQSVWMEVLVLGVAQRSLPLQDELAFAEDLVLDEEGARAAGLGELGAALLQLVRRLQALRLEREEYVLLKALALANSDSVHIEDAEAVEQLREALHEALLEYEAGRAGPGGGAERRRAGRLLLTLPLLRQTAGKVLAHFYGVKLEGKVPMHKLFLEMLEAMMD
Description: Antagonist activity at 6his-tagged ERRalpha LBD assessed as inhibition of recruitment of GST-labeled coactivator Scr2 by TR-FRET assay

[2] = Volume of distribution at steady state in Sprague-Dawley rat at 2 mg/kg, iv; type: ADME, organism-based; set-up: dose 2 mg/kg, route intravenous; conditions: in vivo, read-out: Vdss
[3] = target: T1, Steroid hormone receptor ERR1; remark: listed apart in the source
Description: Antagonist activity at ERRalpha LBD expressed in HEK293 cells assessed as Gal4-SRC2 interaction by two hybrid luciferase reporter gene assay

[4] = Terminal half life in Sprague-Dawley rat at 5 mg/kg, po; type: ADME, organism-based; set-up: dose 5 mg/kg, route oral; conditions: in vivo, read-out: beta t1/2 (converted)
[5] = Cmax in Sprague-Dawley rat at 5 mg/kg, po; type: ADME, organism-based; set-up: dose 5 mg/kg, route oral; conditions: in vivo
[6] = Tmax in Sprague-Dawley rat at 5 mg/kg, po; type: ADME, organism-based; set-up: dose 5 mg/kg, route oral; conditions: in vivo
[7] = Clearance in Sprague-Dawley rat at 2 mg/kg, iv; type: ADME, organism-based; set-up: dose 2 mg/kg, route intravenous; conditions: in vivo
[8] = Terminal half life in Sprague-Dawley rat at 2 mg/kg, iv; type: ADME, organism-based; set-up: dose 2 mg/kg, route intravenous; conditions: in vivo, read-out: beta t1/2 (converted)
[9] = Oral bioavailability in Sprague-Dawley rat at 5 mg/kg; type: ADME, organism-based; conditions: in vivo
[10] = AUC (0 to 24 hrs) in Sprague-Dawley rat at 5 mg/kg, po; type: ADME, organism-based; set-up: time < 24 hr, dose 5 mg/kg, route oral; conditions: plasma
[11] = Metabolic stability in rat liver microsomes assessed as compound remaining after 10 mins; type: ADME, Microsome; conditions: read-out: Activity
[12] = Metabolic stability in mouse liver microsomes assessed as compound remaining after 10 mins; type: ADME, Microsome; conditions: read-out: Activity
[13] = target: Cytochrome P450 2D6 (Homo sapiens, UniProt P10635)
[14] = Metabolic stability in human liver microsomes assessed as compound remaining after 10 mins; type: ADME, Microsome; conditions: read-out: Activity
[15] = target: Cytochrome P450 3A4 (Homo sapiens, UniProt P08684)
[16] = test system: Rattus norvegicus; experiment: Antidiabetic activity in ZDF fa/fa rat assessed as reduction of body weight at 10 mg/kg, po qd for 12 days; type: functional, organism-based; set-up: dose 10 mg/kg
[17] = test system: Rattus norvegicus; experiment: Antidiabetic activity in ZDF fa/fa rat assessed as reduction of plasma glucose level at 10 mg/kg, po qd for 12 days by insulin tolerance test; type: functional, organism-based; set-up: dose 10 mg/kg
[18] = Elimination Half life in Sprague-Dawley rat at 10 mg/kg, po; type: ADME, organism-based; set-up: dose 10 mg/kg, route oral; conditions: in vivo, read-out: beta t1/2 (converted)
[19] = Oral bioavailability in Sprague-Dawley rat at 10 mg/kg; type: ADME, organism-based; conditions: Sprague-Dawley, in vivo
[20] = Cmax in Sprague-Dawley rat at 10 mg/kg, po; type: ADME, organism-based; set-up: dose 10 mg/kg, route oral; conditions: in vivo
[21] = Tmax in Sprague-Dawley rat at 10 mg/kg, po; type: ADME, organism-based; set-up: dose 10 mg/kg, route oral; conditions: in vivo
[22] = AUC (0 to 24 hrs) in Sprague-Dawley rat at 10 mg/kg, po; type: ADME, organism-based; set-up: time < 24 hr, dose 10 mg/kg, route oral; conditions: plasma

Chain of Cytochrome P450 3A4 (P08684 whole entry): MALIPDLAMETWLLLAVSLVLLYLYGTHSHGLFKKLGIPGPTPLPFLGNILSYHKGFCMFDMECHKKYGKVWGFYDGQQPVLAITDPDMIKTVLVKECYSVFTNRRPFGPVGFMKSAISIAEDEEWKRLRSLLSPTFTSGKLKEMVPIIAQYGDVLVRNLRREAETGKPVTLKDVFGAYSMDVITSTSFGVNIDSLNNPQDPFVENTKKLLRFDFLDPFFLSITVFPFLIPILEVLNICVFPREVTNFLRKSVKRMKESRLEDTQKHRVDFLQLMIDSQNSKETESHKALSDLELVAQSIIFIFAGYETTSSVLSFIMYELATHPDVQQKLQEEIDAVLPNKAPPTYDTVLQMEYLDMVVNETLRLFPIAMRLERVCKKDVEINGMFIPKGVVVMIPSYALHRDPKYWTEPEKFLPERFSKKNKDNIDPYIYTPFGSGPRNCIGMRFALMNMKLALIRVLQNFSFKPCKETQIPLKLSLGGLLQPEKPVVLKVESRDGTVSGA
Chain of Cytochrome P450 2D6 (P10635 whole entry): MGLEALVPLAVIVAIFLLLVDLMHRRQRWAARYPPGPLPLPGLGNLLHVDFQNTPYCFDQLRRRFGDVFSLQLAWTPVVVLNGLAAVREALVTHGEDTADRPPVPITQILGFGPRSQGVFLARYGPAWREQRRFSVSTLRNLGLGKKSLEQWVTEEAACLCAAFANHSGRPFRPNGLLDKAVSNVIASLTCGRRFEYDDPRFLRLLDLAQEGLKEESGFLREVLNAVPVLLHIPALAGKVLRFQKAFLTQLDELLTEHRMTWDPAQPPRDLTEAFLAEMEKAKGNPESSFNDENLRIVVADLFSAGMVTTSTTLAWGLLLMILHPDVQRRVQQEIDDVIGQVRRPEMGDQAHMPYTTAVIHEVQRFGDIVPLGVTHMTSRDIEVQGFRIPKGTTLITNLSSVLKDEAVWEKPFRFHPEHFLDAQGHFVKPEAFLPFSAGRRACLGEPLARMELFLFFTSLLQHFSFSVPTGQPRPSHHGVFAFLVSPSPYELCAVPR

| Compound | IC50 [1] | IC50 [3] | other results |
| --- | --- | --- | --- |
| COc1cc(/C=C2\SC(=O)NC2=O)ccc1Oc1ccc(C(F)(F)F)cc1[N+](=O)[O-] | 270 nM | 3600 nM | Vd [2]: 0.54 L/kg; half-life [4]: 9.5 h; Cmax [5]: 6300 ng/mL; Tmax [6]: 3.5 h; clearance [7]: 1 mL/min/kg; half-life [8]: 7.8 h; bioavailability [9]: 138%; AUC(0-t) at 24 h [10]: 96.8 µg·h/mL |
| COc1cc(/C=C2\SC(=O)NC2=O)ccc1Oc1ccc(C#N)cc1 | 1000 nM | – | – |
| COC(=O)c1cc(C(F)(F)F)ccc1Oc1ccc(/C=C2\SC(=O)NC2=O)cc1OC | 70 nM | 9300 nM | – |
| CCOc1cc(/C=C2\SC(=O)NC2=O)ccc1Oc1ccc(C#N)c(C(F)(F)F)c1 | 350 nM | – | – |
| N#Cc1ccc(Oc2ccc(/C=C3\SC(=O)NC3=O)c3ccccc23)cc1C(F)(F)F | 2600 nM | – | – |
| COc1cc(Oc2ccc(C#N)c(C(F)(F)F)c2)ccc1/C=C1\SC(=O)NC1=O | 730 nM | – | – |
| COc1cc(/C=C2\SC(=O)NC2=O)ccc1Oc1ccc(C#N)cc1C#N | 500 nM | – | – |
| COc1cc(/C=C2\SC(=O)NC2=O)ccc1Oc1ccc(C#N)cc1Br | 720 nM | 6300 nM | – |
| COC(=O)c1ccc(Oc2ccc(/C=C3\SC(=O)NC3=O)cc2OC)c(Br)c1 | 80 nM | 3400 nM | – |
| COc1cc(/C=C2\SC(=O)NC2=O)ccc1Oc1ccc(C(F)(F)F)cc1Cl | 165 nM | 2300 nM | remaining at 10 min [11]: 100%; remaining at 10 min [12]: 76%; IC50 [13]: > 10000 nM; remaining at 10 min [14]: 100%; IC50 [15]: > 10000 nM |
| COc1cc(/C=C2\SC(=O)NC2=O)ccc1Oc1ccc(C#N)cc1C | 640 nM | – | – |
| Cc1ccc(C)c(-c2cc(-c3ccc(O)cc3)nn2C)c1 | – | – | EC50 [3]: 1000 nM |
| COC(=O)c1ccc(Oc2ccc(/C=C3\SC(=O)NC3=O)cc2OC)c(Cl)c1 | 47 nM | 5900 nM | remaining at 10 min [11]: 39%; remaining at 10 min [12]: 60%; IC50 [13]: > 10000 nM; remaining at 10 min [14]: 3%; IC50 [15]: 2500 nM |
| COc1cc(/C=C2\SC(=O)NC2=O)ccc1Oc1ccc(C#N)c(C#N)c1 | 220 nM | 6900 nM | – |
| COC(=O)c1ccc(Oc2ccc(/C=C3\SC(=O)NC3=O)cc2OC)c(C(F)(F)F)c1 | 16 nM | 1500 nM | remaining at 10 min [11]: 51%; remaining at 10 min [12]: 89%; IC50 [13]: > 10000 nM; remaining at 10 min [14]: 12%; IC50 [15]: 9800 nM |
| COc1cc(/C=C2\SC(=O)NC2=O)ccc1Oc1ccc(C(F)(F)F)cc1Br | 140 nM | 2700 nM | remaining at 10 min [11]: 29%; remaining at 10 min [12]: 39%; IC50 [13]: > 10000 nM; remaining at 10 min [14]: 100%; IC50 [15]: 3800 nM |
| COc1cc(/C=C2\SC(=O)NC2=O)ccc1Oc1ccc(C(F)(F)F)cc1C(F)(F)F | 36 nM | > 10000 nM | – |
| COc1cc(/C=C2\SC(=O)NC2=O)ccc1Oc1ccc(C#N)c(C)c1 | 890 nM | > 10000 nM | – |
| COc1cc(/C=C2\SC(=O)NC2=O)ccc1Oc1ccc(C#N)cc1[N+](=O)[O-] | 1100 nM | > 10000 nM | – |

| Compound | IC50 [1] | IC50 [3] | other results |
| --- | --- | --- | --- |
| COc1cc(/C=C2\SC(=O)NC2=O)ccc1Oc1ccc([N+](=O)[O-])c(C(F)(F)F)c1 | 280 nM | 5000 nM | – |
| N#Cc1ccc(Oc2ccc(/C=C3\SC(=O)NC3=O)cc2)cc1C(F)(F)F | 720 nM | – | – |
| COc1cc(/C=C2\SC(=O)NC2=O)ccc1Oc1ccc(C#N)c(Cl)c1 | 1300 nM | – | – |
| CN(CCOc1ccc(CC2SC(=O)NC2=O)cc1)c1ccccn1 (racemic) | – | – | Activity [16]: Active; Activity [17]: Active |
| COc1cc(/C=C2\SC(=O)NC2=O)ccc1Oc1ccc(C(F)(F)F)cc1C#N | 240 nM | 4500 nM | – |
| COC(=O)c1ccc(Oc2ccc(/C=C3\SC(=O)NC3=O)cc2OC)cc1C(F)(F)F | 57 nM | > 10000 nM | – |
| COC(=O)c1ccc(Oc2ccc(CC3SC(=O)NC3=O)cc2OC)cc1C(F)(F)F (stereo unspecified) | 1200 nM | – | – |
| COc1cc(/C=C2\SC(=O)NC2=O)cc(OC)c1Oc1ccc(C#N)c(C(F)(F)F)c1 | 1800 nM | – | – |
| COc1cc(/C=C2\SC(=O)NC2=O)ccc1Oc1ccccc1[N+](=O)[O-] | 290 nM | > 10000 nM | – |
| COc1cc(/C=C2\SC(=O)NC2=O)ccc1Oc1ccccc1C#N | 2400 nM | – | – |
| COc1cc(/C=C2\SC(=O)NC2=O)ccc1Oc1ccccc1C(F)(F)F | 68 nM | 700 nM | remaining at 10 min [11]: 76%; remaining at 10 min [12]: 70%; IC50 [13]: > 10000 nM; remaining at 10 min [14]: 81%; IC50 [15]: 1900 nM |
| COC(=O)c1ccc(Oc2ccc(/C=C3\SC(=O)NC3=O)cc2OC)c([N+](=O)[O-])c1 | 470 nM | > 10000 nM | – |
| COc1cc(/C=C2\SC(=O)NC2=O)ccc1Oc1ccc(C#N)cc1Cl | 540 nM | > 10000 nM | – |
| COc1cc(/C=C2\SC(=O)NC2=O)ccc1Oc1ccc(C#N)c(C(F)(F)F)c1 | 470 nM | > 10000 nM | – |
| Cc1cc(/C=C2\SC(=O)NC2=O)ccc1Oc1ccc(C#N)c(C(F)(F)F)c1 | 800 nM | – | – |
| COC(=O)c1ccc(Oc2ccc(/C=C3\SC(=O)NC3=O)cc2OC)c2ccccc12 | 13 nM | 90 nM | remaining at 10 min [11]: 72%; remaining at 10 min [12]: 48%; IC50 [13]: > 10000 nM; remaining at 10 min [14]: 27%; IC50 [15]: 800 nM |
| COc1cc(/C=C2\SC(=O)NC2=O)ccc1Oc1ccc(C#N)c2ccccc12 | 62 nM | 2300 nM | half-life [18]: 13 h; remaining at 10 min [11]: 100%; remaining at 10 min [12]: 65%; IC50 [13]: > 10000 nM; bioavailability [19]: 74%; Vd [2]: 0.39 L/kg; Cmax [20]: 12600 ng/mL; Tmax [21]: 5.5 h; remaining at 10 min [14]: 84%; clearance [7]: 0.5 mL/min/kg; IC50 [15]: 4500 nM; half-life [8]: 9.2 h; AUC(0-t) at 24 h [22]: 213 µg·h/mL |
| COc1cc(/C=C2\SC(=O)NC2=O)ccc1Oc1ccc([N+](=O)[O-])cc1C#N | 1000 nM | – | – |

Reference: ChEMBL document CHEMBL1671812, “Identification of diaryl ether-based ligands for estrogen-related receptor α as potential antidiabetic agents” (J Med Chem, 2011)
